According to publication PMC12048447, “PANTAX: a phase Ib clinical trial of the efflux pump inhibitor SCO-101 in combination with gemcitabine and nab-paclitaxel in non-resectable or metastatic pancreatic cancer” (Investigational New Drugs, 2025):

Test: PANTAX phase Ib: safety, DLT and MTD of SCO-101 with Gem and Nab
Type: in vivo
Protocol: ORR, clinical benefit rate (CBR), median progression free survival (mPFS), and mOS were included as secondary end points.
Patients were recruited at four centers, two in Denmark and two in Germany.
Study treatment is illustrated in Fig. 1. […] Chemotherapy with Gem and Nab was given days 6, 13, and 20 in each cycle. […] During the first cycle, patients received treatment with chemotherapy at a dose corresponding to 80% of the recommended dose, i.e., 100 mg/m^2 Nab and 800 mg/m^2 Gem given as infusions over 30 min. […] The dose of chemotherapy was further adjusted to the patient´s tolerability in accordance with the chemotherapy-product monographs. Standard antiemetics were allowed as was the use of granulocyte colony-stimulating factor (G-CSF) in case of treatment-induced neutropenia.
Toxicity was assessed at baseline and weekly at days 1, 6, 13, and 20 before each treatment.

[1] = 50 mg SCO-101 (cohort 1, 3 patients) + Gem/Nab, any CTC-AE grade
[2] = 50 mg SCO-101 (cohort 1, 3 patients) + Gem/Nab, grade ≥ 3
[3] = 100 mg SCO-101 (cohort 2, 3 patients) + Gem/Nab, any CTC-AE grade
[4] = 150 mg SCO-101 (cohort 3, 6 patients) + Gem/Nab, any CTC-AE grade
[5] = 150 mg SCO-101 (cohort 3, 6 patients) + Gem/Nab, grade ≥ 3
[6] = 200 mg SCO-101 (cohort 4, 6 patients) + Gem/Nab, any CTC-AE grade
[7] = 250 mg SCO-101 (cohort 5, 4 patients) + Gem/Nab, any CTC-AE grade
[8] = 250 mg SCO-101 (cohort 5, 4 patients) + Gem/Nab, grade ≥ 3
[9] = 22 patients, all dose levels, with Gem and Nab
[10] = sum of cohorts (22 patients) + Gem/Nab, any CTC-AE grade
[11] = sum of cohorts (22 patients) + Gem/Nab, grade ≥ 3

O=C(Nc1cc(C(F)(F)F)cc(C(F)(F)F)c1)Nc1ccc(Br)cc1-c1nnn[nH]1 [SCO-101]
Alopecia, patients with treatment-related AE [1]: 2
Athralgia, patients with treatment-related AE [1]: 1
Chills, patients with treatment-related AE [1]: 1
Diarrhea, patients with treatment-related AE [1]: 3
Dizziness, patients with treatment-related AE [1]: 1
Fatigue, patients with treatment-related AE [1]: 3
Headache, patients with treatment-related AE [1]: 1
Hypertension, patients with treatment-related AE [1]: 1
Nail disorder, patients with treatment-related AE [1]: 1
Nausea, patients with treatment-related AE [1]: 3
Pain, patients with treatment-related AE [1]: 2
Paraestesia, patients with treatment-related AE [1]: 1
Rash, patients with treatment-related AE [1]: 2
↑B-bilirubin, patients with treatment-related AE [1]: 2
↑B-lactate, patients with treatment-related AE [1]: 1
↓B-hemoglobin, patients with treatment-related AE [1]: 2
↓B-lymphocytes, patients with treatment-related AE [1]: 3
↓B-neutrophils, patients with treatment-related AE [1]: 3
↓B-thrombocytes, patients with treatment-related AE [1]: 3
Chills, patients with treatment-related AE [2]: 1
Hypertension, patients with treatment-related AE [2]: 1
↑B-lactate, patients with treatment-related AE [2]: 1
↓B-lymphocytes, patients with treatment-related AE [2]: 2
↓B-neutrophils, patients with treatment-related AE [2]: 3
Alopecia, patients with treatment-related AE [3]: 2
Candidiasis, patients with treatment-related AE [3]: 1
Diarrhea, patients with treatment-related AE [3]: 3
Dysgeusia, patients with treatment-related AE [3]: 1
Fatigue, patients with treatment-related AE [3]: 1
Nail disorder, patients with treatment-related AE [3]: 1
Nausea, patients with treatment-related AE [3]: 3
Oedema, patients with treatment-related AE [3]: 1
Paraestesia, patients with treatment-related AE [3]: 2
Rash, patients with treatment-related AE [3]: 2
Stomatitis, patients with treatment-related AE [3]: 1
↑B-bilirubin, patients with treatment-related AE [3]: 1
↓B-hemoglobin, patients with treatment-related AE [3]: 1
↓B-neutrophils, patients with treatment-related AE [3]: 1
Paraestesia, patients with treatment-related AE (100 mg SCO-101 (cohort 2, 3 patients) + Gem/Nab, grade ≥ 3): 1
Alopecia, patients with treatment-related AE [4]: 2
Athralgia, patients with treatment-related AE [4]: 1
Candidiasis, patients with treatment-related AE [4]: 1
Constipation, patients with treatment-related AE [4]: 1
Diarrhea, patients with treatment-related AE [4]: 3
Fatigue, patients with treatment-related AE [4]: 2
Headache, patients with treatment-related AE [4]: 1
Jaundice, patients with treatment-related AE [4]: 1
Nausea, patients with treatment-related AE [4]: 2
Pain, patients with treatment-related AE [4]: 1
Rash, patients with treatment-related AE [4]: 1
Stomatitis, patients with treatment-related AE [4]: 2
TTP, patients with treatment-related AE [4]: 1
Vomitting, patients with treatment-related AE [4]: 2
↑B-bilirubin, patients with treatment-related AE [4]: 2
↓B-hemoglobin, patients with treatment-related AE [4]: 4
↓B-neutrophils, patients with treatment-related AE [4]: 1
↓B-thrombocytes, patients with treatment-related AE [4]: 1
Fatigue, patients with treatment-related AE [5]: 1
Jaundice, patients with treatment-related AE [5]: 1
TTP, patients with treatment-related AE [5]: 1
↑B-bilirubin, patients with treatment-related AE [5]: 1
↓B-hemoglobin, patients with treatment-related AE [5]: 2
blood bilirubin in the DLT case (150 mg SCO-101, one patient): 24 µmol/L
Alopecia, patients with treatment-related AE [6]: 4
Constipation, patients with treatment-related AE [6]: 1
Diarrhea, patients with treatment-related AE [6]: 2
Dizziness, patients with treatment-related AE [6]: 1
Dysgeusia, patients with treatment-related AE [6]: 1
Fatigue, patients with treatment-related AE [6]: 4
Headache, patients with treatment-related AE [6]: 1
Jaundice, patients with treatment-related AE [6]: 1
Loss of appetite, patients with treatment-related AE [6]: 2
Nausea, patients with treatment-related AE [6]: 3
Oedema, patients with treatment-related AE [6]: 1
Pain, patients with treatment-related AE [6]: 2
Paraestesia, patients with treatment-related AE [6]: 1
Rash, patients with treatment-related AE [6]: 2
Stomatitis, patients with treatment-related AE [6]: 4
Vomitting, patients with treatment-related AE [6]: 1
↑B-bilirubin, patients with treatment-related AE [6]: 4
↓B-hemoglobin, patients with treatment-related AE [6]: 3
↓B-neutrophils, patients with treatment-related AE [6]: 1
↓B-thrombocytes, patients with treatment-related AE [6]: 2
↓B-neutrophils, patients with treatment-related AE (200 mg SCO-101 (cohort 4, 6 patients) + Gem/Nab, grade ≥ 3): 1
Candidiasis, patients with treatment-related AE [7]: 1
Constipation, patients with treatment-related AE [7]: 1
Dysgeusia, patients with treatment-related AE [7]: 1
Fatigue, patients with treatment-related AE [7]: 2
Jaundice, patients with treatment-related AE [7]: 1
Nausea, patients with treatment-related AE [7]: 2
Paraestesia, patients with treatment-related AE [7]: 3
Rash, patients with treatment-related AE [7]: 1
↑B-bilirubin, patients with treatment-related AE [7]: 2
↓B-hemoglobin, patients with treatment-related AE [7]: 1
↓B-neutrophils, patients with treatment-related AE [7]: 1
↓B-thrombocytes, patients with treatment-related AE [7]: 2
↓B-neutrophils, patients with treatment-related AE [8]: 1
↓B-thrombocytes, patients with treatment-related AE [8]: 2
cases of clinical jaundice associated with bilirubin elevation (22 patients, all dose levels): three
patients with SAEs (nineteen SAEs) (22 patients, all dose levels): 11 patients
suspected unexpected serious adverse reactions (SUSARs) (22 patients, all dose levels): No suspected unexpected serious adverse reactions
cases with elevation of blood bilirubin [9]: 55%
patients with a SCO-101-related AE grade 4 (thrombocytopenia) [9]: 9%
maximum tolerated dose (MTD) (SCO-101 daily for 6 days, bi-weekly schedule, with 80% dose of Gem and Nab, PDAC patients): 200 mg
dose-limiting toxicities (DLTs), first cycle (dose level 3, 150 mg SCO-101, six patients, with Gem and Nab): One
dose-limiting toxicities (DLTs), first cycle (dose level 4, 200 mg SCO-101, with Gem and Nab): No DLTs
dose-limiting toxicities (DLTs), first cycle (dose level 5, 250 mg SCO-101, thrombocytopenia AE grade 4, with Gem and Nab): two
time to resolution of bilirubin elevation (not accompanied by biochemical hepatotoxicity): ≤ 1 week
SAEs deemed related to SCO-101 (of nineteen SAEs, transiently increased blood bilirubin AE grade 3 at 150 mg SCO-101): one
Alopecia, patients with treatment-related AE [10]: 10
Athralgia, patients with treatment-related AE [10]: 2
Candidiasis, patients with treatment-related AE [10]: 3
Chills, patients with treatment-related AE [10]: 1
Constipation, patients with treatment-related AE [10]: 3
Diarrhea, patients with treatment-related AE [10]: 11
Dizziness, patients with treatment-related AE [10]: 2
Dysgeusia, patients with treatment-related AE [10]: 3
Fatigue, patients with treatment-related AE [10]: 12
Headache, patients with treatment-related AE [10]: 3
Hypertension, patients with treatment-related AE [10]: 1
Jaundice, patients with treatment-related AE [10]: 3
Loss of appetite, patients with treatment-related AE [10]: 2
Nail disorder, patients with treatment-related AE [10]: 2
Nausea, patients with treatment-related AE [10]: 13
Oedema, patients with treatment-related AE [10]: 2
Pain, patients with treatment-related AE [10]: 5
Paraestesia, patients with treatment-related AE [10]: 7
Rash, patients with treatment-related AE [10]: 8
Stomatitis, patients with treatment-related AE [10]: 7
TTP, patients with treatment-related AE [10]: 1
Vomitting, patients with treatment-related AE [10]: 3
↑B-lactate, patients with treatment-related AE [10]: 1
↓B-hemoglobin, patients with treatment-related AE [10]: 11
↓B-lymphocytes, patients with treatment-related AE [10]: 3
↓B-neutrophils, patients with treatment-related AE [10]: 7
↓B-thrombocytes, patients with treatment-related AE [10]: 8
Chills, patients with treatment-related AE [11]: 1
Fatigue, patients with treatment-related AE [11]: 1
Hypertension, patients with treatment-related AE [11]: 1
Jaundice, patients with treatment-related AE [11]: 1
Paraestesia, patients with treatment-related AE [11]: 1
TTP, patients with treatment-related AE [11]: 1
↑B-lactate, patients with treatment-related AE [11]: 1
↓B-hemoglobin, patients with treatment-related AE [11]: 2
↓B-lymphocytes, patients with treatment-related AE [11]: 2
↓B-neutrophils, patients with treatment-related AE [11]: 5
↓B-thrombocytes, patients with treatment-related AE [11]: 2
